# According to patent US8754073B2, “Substituted piperazino-dihydrothienopyrimidines” (Boehringer Ingelheim International GmbH, priority 2007, dated 2014):
# Target: PDE4B (Homo sapiens, UniProt Q07343)
# Assay: Scintillation Proximity Assay (SPA) of PDE4B enzyme activity ([H3]-cAMP cleavage)
# Type: biochemical
# Conditions: test substance 1 μM; one-hour incubation of [H3]-cAMP with PDE4B enzyme at 30° C.
# Procedure, shortened: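 Percent inhibition at 1 μM compound, measured against an uninhibited reaction. PDE4B hydrolysed tritiated cAMP for one hour at 30 °C, then scintillator beads were added to capture [H3]-5′-AMP. Light events were counted after 45 min bead settling.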
# Chain of PDE4B (Q07343 whole entry, species assumed): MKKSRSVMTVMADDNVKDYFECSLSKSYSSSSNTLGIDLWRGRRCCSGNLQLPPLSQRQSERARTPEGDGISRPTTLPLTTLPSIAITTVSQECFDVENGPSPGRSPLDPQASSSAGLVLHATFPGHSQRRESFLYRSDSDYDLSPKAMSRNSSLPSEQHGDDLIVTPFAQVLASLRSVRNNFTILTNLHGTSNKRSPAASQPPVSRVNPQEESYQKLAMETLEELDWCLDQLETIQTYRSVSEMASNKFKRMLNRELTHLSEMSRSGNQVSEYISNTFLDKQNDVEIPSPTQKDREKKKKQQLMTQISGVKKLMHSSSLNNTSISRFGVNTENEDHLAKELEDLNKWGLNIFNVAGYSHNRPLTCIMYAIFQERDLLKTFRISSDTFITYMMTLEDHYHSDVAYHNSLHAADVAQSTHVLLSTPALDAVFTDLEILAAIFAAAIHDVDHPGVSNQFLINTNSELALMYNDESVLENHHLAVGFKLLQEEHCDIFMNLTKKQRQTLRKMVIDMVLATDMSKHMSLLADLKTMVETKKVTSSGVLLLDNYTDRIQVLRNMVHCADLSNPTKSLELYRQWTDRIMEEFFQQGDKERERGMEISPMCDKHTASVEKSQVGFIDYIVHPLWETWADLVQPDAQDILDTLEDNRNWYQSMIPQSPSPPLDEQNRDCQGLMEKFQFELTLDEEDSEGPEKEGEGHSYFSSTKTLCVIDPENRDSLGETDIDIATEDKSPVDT
row,Compound,inhibition at 1 µM [%]
1,[O-][S+]1CCc2nc(N3CCC(c4noc5cc(F)ccc45)CC3)nc(NC3CCOCC3)c21 (stereo not shown) [Example 121],96
2,"CCc1[nH]c2ccc(F)cc2c1C1CCN(c2nc3c(c(NC4(CO)CC4)n2)[S+]([O-])CC3)CC1 (stereo not shown) [Example 37, (1-{2-[4-(2-Ethyl-5-Fluoro-1H-Indol-3-Yl)-Piperidin-1-Yl]-5-Oxo-6,7-Dihydro-5H-5λ^4-Thieno[3,2-d]Pyrimidin-4-Ylamino}-Cyclopropyl)-Methanol]",92
3,CC(C)[C@H](CO)Nc1nc(N2CCC(c3c[nH]c4ccccc34)CC2)nc2c1[S+]([O-])CC2 (stereo partly shown) [Example 12],94
4,CN1C[C@@H](Nc2nc(N3CCC(c4c[nH]c5ccccc45)CC3)nc3c2[S+]([O-])CC3)CCC1=O (stereo partly shown) [Example 41],97
5,"O=S1(=O)CCc2nc(N3CCC(c4ccc(Cl)cc4)CC3)nc(NC3(CO)CC3)c21 [Example 333, (1-{2-[4-(4-chlorophenyl)-piperidin-1-yl]-5.5-dioxo-6,7-dihydro-5H-5λ^6-thieno[3,2-d]pyrimidin-4-ylamino}-cyclopropyl)-methanol]",56
6,COC(=O)c1ccc(C2CCN(c3nc4c(c(N[C@@H](CO)C(C)C)n3)[S+]([O-])CC4)CC2)cc1 (stereo partly shown) [Example 150],94
7,[O-][S+]1CCc2nc(N3CCC(c4cc5ccccc5o4)CC3)nc(NC3(CO)CC3)c21 (stereo not shown) [Example 110],97
8,O=C1Nc2ccccc2C2(CCN(c3nc4c(c(NC5CCOCC5)n3)[S+]([O-])CC4)CC2)N1 (stereo not shown) [Example 66],62
9,"CN1C[C@@H](Nc2nc(N3CCC4(CC3)c3ccccc3NC(=O)N4C)nc3c2[S+]([O-])CC3)CCC1=O (stereo partly drawn) [Example 43, (S)-3′-Methyl-1-(4-(1-Methyl-6-Oxopiperidin-3-Ylamino)-5-Oxo-6,7-Dihydro-5H-5λ^4-Thieno[3,2-d]Pyrimidin-2-YL)-3′-Methyl-1′H-Spiro[Piperidin-4,4′-Quinazolin]-2′(3′H)-One]",95
10,[O-][S+]1CCc2nc(N3CCC(O)(c4cc(F)cc(F)c4)CC3)nc(Nc3cccc(F)c3)c21 (stereo not shown) [Example 77],96
11,COc1ccc(C2CCN(c3nc4c(c(NC5CCOCC5)n3)[S+]([O-])CC4)CC2)cc1 (stereo not shown) [Example 117],94
12,Cc1noc(C2CCN(c3nc4c(c(NC5CCOCC5)n3)[S+]([O-])CC4)CC2)n1 (stereo not shown) [Example 68],93
13,COc1ccc(C2CCN(c3nc4c(c(N[C@@H](CO)C(C)C)n3)[S+]([O-])CC4)CC2)cc1 (stereo partly shown) [Example 148],93
14,[O-][S+]1CCc2nc(N3CCC(c4ccccc4F)CC3)nc(NC3(CO)CC3)c21 (stereo not shown) [Example 87],92
15,CN1C[C@@H](Nc2nc(N3CCC(O)(c4cc(F)cc(F)c4)CC3)nc3c2[S+]([O-])CC3)CCC1=O (stereo partly shown) [Example 47],97
16,[O-][S+]1CCc2nc(N3CCC(c4nnc5ccccn45)CC3)nc(NC3(CO)CC3)c21 (stereo not shown) [Example 108],88
17,[O-][S+]1CCc2nc(N3CCC(c4nc(-c5ccncc5)no4)CC3)nc(NC3(CO)CC3)c21 (stereo not shown) [Example 116],94
18,CC(C)[C@H](CO)Nc1nc(N2CCC(C#N)(c3ccccc3)CC2)nc2c1[S+]([O-])CC2 (stereo partly shown) [Example 25],90
19,COC(=O)c1cccc(C2CCN(c3nc4c(c(N[C@@H](CO)C(C)C)n3)[S+]([O-])CC4)CC2)c1 (stereo partly shown) [Example 151],94
20,CN1C[C@@H](Nc2nc(N3CCC(c4c[nH]cn4)CC3)nc3c2[S+]([O-])CC3)CCC1=O (stereo partly shown) [Example 42],95
21,"CC(C)[C@H](CO)Nc1nc(N2CCC3(CC2)c2ccccc2NC(=O)N3C)nc2c1[S+]([O-])CC2 (stereo partly drawn) [Example 14, (R)-1-(4-(1-Hydroxy-3-Methylbutan-2-Ylamino)-5-Oxo-6,7-Dihydro-5H-5λ^4-Thieno[3,2-d]Pyrimidin-2-Yl)-3′-Methyl-1′H-Spiro[Piperidin-4,4′-Quinazolin]-2′(3′H)-One]",60
22,"[O-][S+]1CCc2nc(N3CCC(c4nc5ccccc5o4)CC3)nc(NC3CCOCC3)c21 (stereo not shown) [Example 99, [2-(4-Benzoxazol-2-Yl-Piperidin-1-Yl)-5-Oxo-6,7-Dihydro-5H-5λ^4-Thieno[3,2-d]Pyrimidin-4-Yl]-(Tetrahydropyran-4-Yl)-Amine]",97
23,CS(=O)(=O)N1CC2(CCN(c3nc4c(c(NC5(CO)CC5)n3)[S+]([O-])CC4)CC2)c2ccccc21 (stereo not shown) [Example 30],89

# Same assay, conditions: test substance 1 μM; one-hour incubation with [H3]-cAMP at 30° C.
row,Compound,inhibition at 1 µM [%]
1,Cc1oc(C2CCN(c3nc4c(c(NC5CCOCC5)n3)[S+]([O-])CC4)CC2)nc1-c1ccccc1 (stereo not shown) [Example 276],95
2,"CC(=O)NCC1(c2ccccc2)CCN(c2nc3c(c(N[C@H]4CCC(=O)N(C)C4)n2)[S+]([O-])CC3)CC1 (stereo partly shown) [Example 204, N-{1-[4-(1-methyl-6-oxopiperidin-3-ylamino)-5-oxo-6,7-dihydro-5H-5λ^4-thieno[3,2-d]pyrimidin-2-yl]-4-phenylpiperidin-4-ylmethyl}-acetamide]",96
3,Cc1nn(C)c(C)c1CNC(=O)c1ccc(C2CCN(c3nc4c(c(NC5CCOCC5)n3)[S+]([O-])CC4)CC2)cc1 (stereo not shown) [Example 230],81
4,"CN1C[C@@H](Nc2nc(N3CCC(CNS(C)(=O)=O)(c4ccccc4)CC3)nc3c2[S+]([O-])CC3)CCC1=O (stereo partly shown) [Example 253, N-{1-[4-(1-Methyl-6-Oxo-Piperidin-3-Ylamino)-5-Oxo-6,7-Dihydro-5H-5λ^4-Thieno[3,2-d]Pyrimidin-2-Yl]-4-Phenylpiperidin-4-Ylmethyl}-Methanesulphonamide]",92
5,[O-][S+]1CCc2nc(N3CCC(CO)(c4ccc(Cl)cc4)CC3)nc(Nc3cccc(F)c3)c21 (stereo not shown) [Example 291],89
6,"Cn1cc(C2CCN(c3nc4c(c(NC5CCOCC5)n3)[S+]([O-])CC4)CC2)c2cc(C(C)(C)C)ccc21 (stereo not shown) [Example 192, {2-[4-(5-tert-butyl-1-methyl-1H-indol-3-yl)-piperidin-1-yl]-5-oxo-6,7-dihydro-5H-5λ^4-thieno[3,2-d]pyrimidin-4-yl}-(tetrahydropyran-4-yl)-amine]",95
7,CN1C[C@@H](Nc2nc(N3CCC(c4cc[n+]([O-])cc4)CC3)nc3c2[S+]([O-])CC3)CCC1=O (stereo partly shown) [Example 196],94
8,[O-][S+]1CCc2nc(N3CCC(c4nc5ncncc5[nH]4)CC3)nc(NC3CCOCC3)c21 (stereo not shown) [Example 208],82
9,CC(C)[C@H](CO)Nc1nc(N2CCC(Oc3ccc(F)cc3)CC2)nc2c1[S+]([O-])CC2 (stereo partly shown) [Example 168],89
10,COC1(c2ccc(Cl)cc2)CCN(c2nc3c(c(Nc4cccc(F)c4)n2)[S+]([O-])CC3)CC1 (stereo not shown) [Example 316],92
11,"CC(C)(C)OC(=O)N[C@@H]1CC1Nc1nc(N2CCC(c3ccc(Cl)cc3)CC2)nc2c1[S+]([O-])CC2 (stereo partly shown) [Example 222, tert-butyl (2-{2-[4-(4-chlorophenyl)-piperidin-1-yl]-5-oxo-6,7-dihydro-5H-5λ^4-thieno[3,2-d]pyrimidin-4-ylamino}-cyclopropyl)-carbamidate]",89
12,[O-][S+]1CCc2nc(N3CCC(Oc4ccc5c(c4)OCO5)CC3)nc(NC3CCOCC3)c21 (stereo not shown) [Example 174],92
13,[O-][S+]1CCc2nc(N3CCC(Oc4ccc(F)cc4)CC3)nc(NC3CCOCC3)c21 (stereo not shown) [Example 166],92
14,[O-][S+]1CCc2nc(N3CCC(Oc4ccc(F)c(F)c4)CC3)nc(NC3CCOCC3)c21 (stereo not shown) [Example 175],89
15,[O-][S+]1CCc2nc(N3CCC(Oc4ccc(Cl)c(Cl)c4)CC3)nc(NC3CCOCC3)c21 (stereo not shown) [Example 181],92
16,COCC1(c2ccc(Cl)cc2)CCN(c2nc3c(c(N[C@@H](CO)C(C)C)n2)[S+]([O-])CC3)CC1 (stereo partly shown) [Example 304],89
17,Cc1nn(C)c(C)c1CNC(=O)c1cccc(C2CCN(c3nc4c(c(NC5CCOCC5)n3)[S+]([O-])CC4)CC2)c1 (stereo not shown) [Example 250],92
18,CCN1CCc2ccc(OC3CCN(c4nc5c(c(NC6CCOCC6)n4)[S+]([O-])CC5)CC3)cc2CC1 (stereo not shown) [Example 234],95
19,[O-][S+]1CCc2nc(N3CCC(c4nc5ccncc5[nH]4)CC3)nc(NC3CCOCC3)c21 (stereo not shown) [Example 213],88
20,CS(=O)(=O)NCC1(c2ccccc2)CCN(c2nc3c(c(NC4CCOCC4)n2)[S+]([O-])CC3)CC1 (stereo not shown) [Example 325],87
